The source of these data is patent publication US20120088664A1, “Antifungal 1,2,4-triazolyl derivatives having a 5-sulfur subtituent” (BASF SE, priority 2009, published 2012).

The test system of one series is Phytophthora infestans. Type of series: in vivo. Conditions: 300 ppm active compound, tomato plants sprayed to run-off, inoculated next day, assessed after 6 days; untreated plants 90% infected.
For the next series, the system named is Botrytis cinerea. Briefly: Preventative control of grey mold (Botrytis cinerea) on leaves of green pepper (greenhouse test). In kind it is in vivo. Conditions: 300 ppm active compound, green pepper seedlings sprayed to run-off, inoculated next day, assessed after 5 days; untreated plants 90% infected.

On to `CC(C)(C)C(O)(CCc1ccc(Cl)cc1Cl)Cn1nc[nH]c1=S` (stereo not shown) [Example 1, 1-(2-(2,4-dichlorophenethyl)-2-hydroxy-3,3-dimethylbutyl)-1H-1,2,4-triazole-5(4H)-thione], for which, in the series with Phytophthora infestans, the “infection (fungal attack on the leaves visually assessed as % diseased leaf area)” value stood at 15%.
As usually defined, the melting point is the temperature of the solid-liquid transition. `CC(C)(C)C(O)(CCc1ccc(F)cc1F)Cn1nc[nH]c1=S` (stereo not shown) [Example 2, 1-(2-(2,4-Difluorophenethyl)-2-hydroxy-3,3-dimethylbutyl)-1H-1,2,4-triazole-5(4H)-thione] displayed a melting point of 130 to 132 °C.
Consider `CC(C)(C)C(O)(CCc1ccc(Cl)c(Cl)c1)Cn1nc[nH]c1=S` (stereo not shown) [Example 3, 1-(2-(3,4-Dichlorophenethyl)-2-hydroxy-3,3-dimethylbutyl)-1H-1,2,4-triazole-5(4H)-thione], for which the melting point was in the range of 155 to 157 °C.
As to `CC(C)(C)C(O)(CCc1ccc(F)cc1)Cn1nc[nH]c1=S` (stereo not shown) [Example 4, 1-(2-(4-Fluorophenethyl)-2-hydroxy-3,3-dimethylbutyl)-1H-1,2,4-triazole-5(4H)-thione], the melting point is 134 to 135 °C. Moreover, the “infection (fungal attack on the leaves visually assessed as % diseased leaf area)” value with Botrytis cinerea is listed as 7%.
For the molecule `Cc1ccc(CCC(O)(Cn2nc[nH]c2=S)C(C)(C)C)cc1` (stereo not shown) [Example 5, 1-(2-hydroxy-3,3-dimethyl-2-(4-methylphenethyl)butyl)-1H-1,2,4-triazole-5(4H)-thione], the melting point was in the range of 137 to 138 °C.
The molecule `CC(C)(C)C(O)(CCc1ccc(C(F)(F)F)cc1)Cn1nc[nH]c1=S` (stereo not shown) [Example 6, 1-(2-Hydroxy-3,3-dimethyl-2-(4-(trifluoromethyl)phenethyl)butyl)-1H-1,2,4-triazole-5(4H)-thione] displayed a melting point of 139 to 140 °C.
